Active and inactive are the calls of the source. The calls are words filed in the database; no cut-off is given here.
Assays:
Mus musculus [1] = experiment: Down regulation of LXRalpha mRNA expression in HFD-induced obese C57BL/6J mouse liver at 20 to 40 mg/kg, ip administered twice daily for 2.5 days measured at 2 hrs post last dose by RT-PCR analysis; assay type: functional, organism-based
Mus musculus [2] = experiment: Increase in carbon dioxide production in HFD-induced obese C57BL/6J mouse at 40 mg/kg, ip administered twice daily for 2.5 days measured up to 12.6 hrs under dark condition; assay type: functional, organism-based
Mus musculus [3] = experiment: Down regulation of n-SREBP1 expression in HFD-induced obese C57BL/6J mouse liver at 20 to 40 mg/kg, ip administered twice daily for 2.5 days measured at 2 hrs post last dose by Western blot analysis; assay type: functional, organism-based
Mus musculus [4] = experiment: Antihyperglycemic activity in high fat diet-induced obese C57BL/6J mouse assessed as reduction in blood glucose level at 20 to 40 mg/kg, ip administered twice daily for 2.5 days measured after 2 hrs post last dose; assay type: functional, organism-based
Mus musculus [5] = experiment: Improvement in insulin resistance in high fat diet-induced obese C57BL/6J mouse assessed as reduction in fasting serum insulin level at 40 mg/kg, ip pretreated twice daily for 2.5 days followed by insulin challenge at 2 hrs post last dose measured up to 2 hrs by ELISA based ITT; assay type: functional, organism-based
Mus musculus [6] = experiment: Improvement in insulin resistance in high fat diet-induced obese C57BL/6J mouse assessed as increase in phosphorylated GSK3beta expression in skeletal muscle at 40 mg/kg, ip administered twice daily for 2.5 days measured at 2 hrs post last dose by Western blot analysis; assay type: functional, organism-based
Mus musculus [7] = experiment: Antihyperglycemic activity in high fat diet-induced obese C57BL/6J mouse assessed as reduction in blood glucose level at 20 to 40 mg/kg, ip administered twice daily for 2.5 days measured at 3 days post last dose; assay type: functional, organism-based
Mus musculus [8] = experiment: Improvement in serum AST level in HFFD-induced obese C57BL/6J mouse assessed as serum AST level at 40 mg/kg, ip administered twice daily for 2.5 days followed by once daily dosing up to 16 days measured at 2 hrs post last dose (reference value: 15.14 +/- 3.84 IU/L); assay type: functional
Mus musculus [9] = experiment: Antihyperlipidemic activity in high fat diet-induced obese C57BL/6J mouse assessed as serum free fatty acid levels at 40 mg/kg, ip administered twice daily for 2.5 days measured at 2 hrs post last dose (reference value: 1.41 +/- 0.3 mmol/L); assay type: functional
Mus musculus [10] = experiment: Antihyperlipidemic activity in high fat diet-induced obese C57BL/6J mouse assessed as serum HDL-C levels at 20 mg/kg, ip administered twice daily for 2.5 days measured at 2 hrs post last dose (reference value: 1.82 +/- 0.58 mmol/L); assay type: functional
Mus musculus [11] = experiment: Antihyperlipidemic activity in high fat diet-induced obese C57BL/6J mouse assessed as serum total cholesterol levels at 20 mg/kg, ip administered twice daily for 2.5 days measured at 2 hrs post last dose (reference value: 4.56 +/- 1.01 mmol/L); assay type: functional
Mus musculus [12] = experiment: Down regulation of HMGCS mRNA expression in HFD-induced obese C57BL/6J mouse adipose tissue at 20 to 40 mg/kg, ip administered twice daily for 2.5 days measured at 2 hrs post last dose by RT-PCR analysis; assay type: functional, organism-based
Mus musculus [13] = experiment: Increase in oxygen consumption in HFD-induced obese C57BL/6J mouse at 40 mg/kg, ip administered twice daily for 2.5 days incubated for 12.6 hrs under dark condition followed by redosing on day 3 for 2 times; assay type: functional, organism-based
Mus musculus [14] = experiment: Improvement in insulin resistance in high fat diet-induced obese C57BL/6J mouse assessed as increase in phosphorylated GSK3beta level in liver at 40 mg/kg, ip administered twice daily for 2.5 days measured at 2 hrs post last dose by Western blot analysis; assay type: functional, organism-based
Mus musculus [15] = experiment: Down regulation of FAS mRNA expression in HFD-induced obese C57BL/6J mouse adipose tissue at 20 to 40 mg/kg, ip administered twice daily for 2.5 days measured at 2 hrs post last dose by RT-PCR analysis; assay type: functional, organism-based
Mus musculus [16] = experiment: Antiobesity activity in HFFD-induced obese C57BL/6J mouse assessed as reduction in size of adipocytes at 40 mg/kg, ip administered twice daily for 2.5 days followed by once daily dosing up to 16 days measured at 2 hrs post last dose by hematoxylin-eosin staining based histological analysis; assay type: functional, organism-based
Mus musculus [17] = experiment: Improvement in insulin resistance in high fat diet-induced obese C57BL/6J mouse assessed as reduction in fasting serum glucose level at 40 mg/kg, ip pretreated twice daily for 2.5 days followed by insulin challenge at 2 hrs post last dose measured up to 2 hrs by ITT; assay type: functional, organism-based
Mus musculus [18] = experiment: Increase in carbon dioxide production in HFD-induced obese C57BL/6J mouse at 40 mg/kg, ip administered twice daily for 2.5 days incubated for 12.6 hrs under dark condition followed by redosing on day 3 for 2 times; assay type: functional, organism-based
Mus musculus [19] = experiment: Improvement in insulin resistance in high fat diet-induced obese C57BL/6J mouse assessed as increase in GLUT2 expression in skeletal muscle at 40 mg/kg, ip administered twice daily for 2.5 days measured at 2 hrs post last dose by Western blot analysis; assay type: functional, organism-based
Mus musculus [20] = experiment: Antiobesity activity in HFFD-induced obese C57BL/6J mouse assessed as reduction in hepatic steatosis at 40 mg/kg, ip administered twice daily for 2.5 days followed by once daily dosing up to 16 days measured at 2 hrs post last dose by Oil red O staining based histological analysis; assay type: functional, organism-based
Mus musculus [21] = experiment: Antihyperlipidemic activity in high fat diet-induced obese C57BL/6J mouse assessed as serum HDL-C levels at 40 mg/kg, ip administered twice daily for 2.5 days measured at 2 hrs post last dose (reference value: 1.82 +/- 0.58 mmol/L); assay type: functional
Mus musculus [22] = experiment: Down regulation of ABCG8 mRNA expression in HFD-induced obese C57BL/6J mouse liver at 20 to 40 mg/kg, ip administered twice daily for 2.5 days measured at 2 hrs post last dose by RT-PCR analysis; assay type: functional, organism-based
Mus musculus [23] = experiment: Down regulation of ABCG5 mRNA expression in HFD-induced obese C57BL/6J mouse liver at 20 to 40 mg/kg, ip administered twice daily for 2.5 days measured at 2 hrs post last dose by RT-PCR analysis; assay type: functional, organism-based
Mus musculus [24] = experiment: Increase in phosphorylated AMPKalpha level in HFFD-induced obese C57BL/6J mouse liver at 20 to 40 mg/kg, ip administered twice daily for 2.5 days measured at 2 hrs post last dose by Western blot analysis; assay type: functional, organism-based
Mus musculus [25] = experiment: Antihyperlipidemic activity in high fat diet-induced obese C57BL/6J mouse assessed as serum free fatty acid levels at 20 mg/kg, ip administered twice daily for 2.5 days measured at 2 hrs post last dose (reference value: 1.41 +/- 0.3 mmol/L); assay type: functional
Mus musculus [26] = experiment: Antihyperlipidemic activity in high fat diet-induced obese C57BL/6J mouse assessed as reduction in cholesterol level in epididymis adipose tissue at 20 to 40 mg/kg, ip administered twice daily for 2.5 days measured at 2 hrs post last dose; assay type: functional, organism-based
Mus musculus [27] = experiment: Down regulation of HMGCR mRNA expression in HFD-induced obese C57BL/6J mouse liver at 20 to 40 mg/kg, ip administered twice daily for 2.5 days measured at 2 hrs post last dose by RT-PCR analysis; assay type: functional, organism-based

COC(=O)C1=CCC[C@H]2[C@](C)(C[C@@H](O[C@@H]3O[C@H](CO)[C@@H](O)[C@H](O)[C@H]3O)c3ccoc3)[C@H]3C[C@H](OC3=O)[C@@]12C
Activity (Mus musculus [1]): Active | Activity (Mus musculus [2]): Active | Activity (Mus musculus [3]): Active | Activity (Mus musculus [4]): Active | Activity (Mus musculus [5]): Active | Activity (Mus musculus [6]): Active | Activity (Mus musculus [7]): Active | Activity (Mus musculus [8]): 8.61 IU/L | Activity (Mus musculus [9]): 0.82 mmol/L | Activity (Mus musculus [10]): 1.2 mmol/L | Activity (Mus musculus [11]): 3.8 mmol/L | Activity (Mus musculus [12]): Active | Activity (Mus musculus [13]): Active | Activity (Mus musculus [14]): Active | Activity (Mus musculus [15]): Active | Activity (Mus musculus [16]): Active | Activity (Mus musculus [17]): Active | Activity (Mus musculus [18]): Active | Activity (Mus musculus [19]): Active | Activity (Mus musculus [20]): Active | Activity (Mus musculus [21]): 1.31 mmol/L | Activity (Mus musculus [22]): Active | Activity (Mus musculus [23]): Active | Activity (Mus musculus [24]): inactive | Activity (Mus musculus [25]): 1.39 mmol/L | Activity (Mus musculus [26]): Active | Activity (Mus musculus [27]): Active

Source: ChEMBL document CHEMBL4190285, “Borapetoside E, a Clerodane Diterpenoid Extracted from Tinospora crispa, Improves Hyperglycemia and Hyperlipidemia in High-Fat-Diet-Induced Type 2 Diabetes Mice” (J Nat Prod, 2017)
